For 20 compounds, T/C results are on record in PubChem BioAssay AID268 (DTP/NCI, 2004).

“And” between values parts separate entries of the source, which are not always exact repeats. Equal values may be shown once.

This assay deals with CD2F1 mice, P1798 lymphosarcoma sc, tumor weight T/C. Put plainly: NCI In Vivo Anticancer Drug Screen. Data for tumor model P1798 Lymphosarcoma (subcutaneous) in CD2F1 (CDF1) mice. The settings on record: endpoint: mean tumor weight, higher = larger tumour. The protocol:
The antitumor activity of compounds was measured in mice bearing transplantable tumors. Survival or tumor size were measured and the results are expressed as the measurement made in the treated group (T) divided by the measurement made in the vehicle treated control group (C). The tumor model used in this assay is P1798 Lymphosarcoma (subcutaneous) in CD2F1 (CDF1) mice

Setting [1] is: dose: 25.0 mg/kg/injection, schedule: Q01DX010 (sc), vehicle: steriod suspending solution.
[2] abbreviates: dose: 6.25 mg/kg/injection, schedule: Q01DX010 (ip), vehicle: saline.
Setting [3] is: dose: 12.5 mg/kg/injection, schedule: Q01DX010 (ip), vehicle: saline.
The mark [4] stands for this setting: dose: 25.0 mg/kg/injection, schedule: Q01DX010 (ip), vehicle: saline.
Where [5] appears, read: dose: 50.0 mg/kg/injection, schedule: Q01DX010 (ip), vehicle: saline.
Where [6] appears, read: dose: 125.0 mg/kg/injection, schedule: Q01DX010 (ip), vehicle: saline.
[7] abbreviates: dose: 15.0 mg/kg/injection, schedule: Q01DX010 (ip), vehicle: saline.
The mark [8] stands for this setting: dose: 30.0 mg/kg/injection, schedule: Q01DX010 (ip), vehicle: saline.
[9] abbreviates: dose: 100.0 mg/kg/injection, schedule: Q01DX010 (ip), vehicle: saline.
The mark [10] stands for this setting: dose: 200.0 mg/kg/injection, schedule: Q01DX010 (ip), vehicle: saline.
[11] abbreviates: dose: 400.0 mg/kg/injection, schedule: Q01DX010 (ip), vehicle: saline.

On to `CC(=O)[C@H]1CC[C@H]2[C@@H]3CCC4=CC(=O)[C@H](C)C[C@]4(C)[C@@]3(F)[C@@H](O)C[C@]12C`, for which the T/C (in general, the result in the treated group divided by that in the control group, in per cent) is, setting by setting: under setting [1], 15 % of control; (dose: 50.0 mg/kg/injection, schedule: Q01DX010 (sc), vehicle: steriod suspending solution) 5 % of control; (dose: 100.0 mg/kg/injection, schedule: Q01DX010 (sc), vehicle: steriod suspending solution) 4 % of control; (dose: 200.0 mg/kg/injection, schedule: Q01DX010 (sc), vehicle: steriod suspending solution) 6 % of control; (dose: 400.0 mg/kg/injection, schedule: Q01DX010 (sc), vehicle: steriod suspending solution) 5 % of control.

Take `NCCCCCCNCCCCCCN`: the T/C was 90 % of control under setting [2]; 89 % of control under setting [3]; 100 % of control and 78 % of control under setting [4]; 50 % of control and 70 % of control under setting [5].

In the case of `CC[n+]1c(-c2ccccc2)c2cc(N)ccc2c2ccc(N)cc21`, the T/C was 108 % of control (dose: 1.25 mg/kg/injection, schedule: Q01DX010 (ip), vehicle: saline); 97 % of control (dose: 2.5 mg/kg/injection, schedule: Q01DX010 (ip), vehicle: saline); 4 % of control and 10 % of control (dose: 10.0 mg/kg/injection, schedule: Q01DX010 (ip), vehicle: saline).

With `Nc1c(Br)cc2c(c1Br)Cc1cc([N+](=O)[O-])ccc1-2`, the T/C is 72 % of control (dose: 31.3 mg/kg/injection, schedule: Q01DX010 (ip), vehicle: saline); 78 % of control (dose: 62.5 mg/kg/injection, schedule: Q01DX010 (ip), vehicle: saline); 61 % of control under setting [6]; 62 % of control (dose: 250.0 mg/kg/injection, schedule: Q01DX010 (ip), vehicle: saline).

Consider `Clc1ncnc2nc[nH]c12`, for which the T/C is, setting by setting: (dose: 7.5 mg/kg/injection, schedule: Q01DX010 (ip), vehicle: saline) 91 % of control; under setting [7], 84 % of control and 85 % of control; under setting [8], 102 % of control; (dose: 120.0 mg/kg/injection, schedule: Q01DX010 (ip), vehicle: saline) 91 % of control.

On to `Cc1ccc2[nH]c3nc4cc(C)c(C)cc4nc3c2c1`, for which the T/C under setting [5] is 93 % of control and the T/C under setting [9] is 76 % of control.

For the compound `CN(C)[C@@H]1C(=O)C(C(N)=O)=C(O)[C@@]2(O)C(=O)C3=C(O)c4c(O)cccc4C[C@H]3C[C@@H]12`, the T/C under setting [7] was 124 % of control and the T/C under setting [8] was 106 % of control.

In the case of `NC(N)=NCCCC(N)C(=O)NCCCCCCCCCCNC(=O)C(N)CCCN=C(N)N` (stereo unspecified), the T/C is 103 % of control under setting [2], 110 % of control under setting [3], 78 % of control under setting [4] and 99 % of control under setting [5].

Turning to `CC(=O)NCCCCCCNCCCCCCNC(C)=O`, the T/C is, setting by setting: under setting [5], 99 % of control; under setting [9], 92 % of control; under setting [10], 102 % of control; under setting [11], 80 % of control.

For the compound `CS(=O)(=O)OCCC(=O)N1CCN(C(=O)CCOS(C)(=O)=O)CC1`, the T/C is, setting by setting: under setting [3], 77 % of control; under setting [4], 71 % of control; under setting [5], 7 % of control; under setting [9], 4 % of control.

For `CS(=O)(=O)OCCN(CCOS(C)(=O)=O)c1ccc(N=O)cc1`, the T/C runs as follows: (dose: 0.25 mg/kg/injection, schedule: Q01DX010 (ip), vehicle: saline) 92 % of control; (dose: 1.0 mg/kg/injection, schedule: Q01DX010 (ip), vehicle: saline) 69 % of control.

`NC1(C(=O)O)CCCC1`: the T/C was 40 % of control and 48 % of control (dose: 22.5 mg/kg/injection, schedule: Q01DX010 (ip), vehicle: saline); 21 % of control and 38 % of control (dose: 45.0 mg/kg/injection, schedule: Q01DX010 (ip), vehicle: saline); 4 % of control (dose: 90.0 mg/kg/injection, schedule: Q01DX010 (ip), vehicle: saline).

As for `COc1ccc2[nH]c3c(C)c4ccncc4c(C)c3c2c1`, the T/C (dose: 0.39 mg/kg/injection, schedule: Q01DX010 (ip), vehicle: saline) is 104 % of control; the T/C (dose: 0.78 mg/kg/injection, schedule: Q01DX010 (ip), vehicle: saline) was 111 % of control; the T/C (dose: 1.56 mg/kg/injection, schedule: Q01DX010 (ip), vehicle: saline) is 73 % of control; the T/C under setting [2] is 61 % of control; the T/C under setting [3] is 45 % of control; the T/C under setting [4] is 40 % of control and 42 % of control.

As to `C[C@]12CC[C@@H]3c4ccc(O)cc4CC[C@H]3[C@@H]1C[C@@H](O)[C@@H]2O`, the T/C (dose: 6.25 mg/kg/injection, schedule: Q01DX010 (sc), vehicle: steriod suspending solution) was 73 % of control and 86 % of control; the T/C under setting [1] was 69 % of control and 86 % of control.

With `OC(CBr)C(O)C(O)C(O)CBr` (stereo unspecified), the T/C by setting is: under setting [4], 62 % of control; under setting [5], 70 % of control and 84 % of control; under setting [11], 98 % of control.

Consider `C[C@]12CCC(=O)C=C1CC[C@H]1[C@@H]3CC[C@@]4(OCC4=O)[C@@]3(C)C[C@H](O)[C@@]12F`, for which the T/C was 59 % of control (dose: 10.0 mg/kg/injection, schedule: Q01DX010 (sc), vehicle: steriod suspending solution); 43 % of control (dose: 20.0 mg/kg/injection, schedule: Q01DX010 (sc), vehicle: steriod suspending solution); 48 % of control (dose: 40.0 mg/kg/injection, schedule: Q01DX010 (sc), vehicle: steriod suspending solution); 16 % of control (dose: 80.0 mg/kg/injection, schedule: Q01DX010 (sc), vehicle: steriod suspending solution); 7 % of control (dose: 160.0 mg/kg/injection, schedule: Q01DX010 (sc), vehicle: steriod suspending solution); 1 % of control (dose: 320.0 mg/kg/injection, schedule: Q01DX010 (sc), vehicle: steriod suspending solution).

For the compound `[N-]=[N+]=CC(=O)CCC(N)C(=O)O` (stereo unspecified), the T/C was 102 % of control (dose: 0.01 mg/kg/injection, schedule: Q01DX010 (ip), vehicle: saline); 89 % of control (dose: 0.03 mg/kg/injection, schedule: Q01DX010 (ip), vehicle: saline); 100 % of control (dose: 0.05 mg/kg/injection, schedule: Q01DX010 (ip), vehicle: saline); 108 % of control (dose: 0.1 mg/kg/injection, schedule: Q01DX010 (ip), vehicle: saline).

Regarding `C[C@]12C=CC(=O)C=C1CC[C@@H]1[C@@H]2[C@@H](O)C[C@@]2(C)[C@H]1CC[C@]2(O)C(=O)CO`, the T/C (dose: 12.5 mg/kg/injection, schedule: Q01DX005 (sc), vehicle: steriod suspending solution) was 41 % of control; the T/C (dose: 12.5 mg/kg/injection, schedule: Q01DX010 (sc), vehicle: steriod suspending solution) is 42 % of control and 46 % of control; the T/C (dose: 25.0 mg/kg/injection, schedule: Q01DX005 (sc), vehicle: steriod suspending solution) was 48 % of control; the T/C (dose: 25.0 mg/kg/injection, schedule: Q02DX010 (sc), vehicle: steriod suspending solution) is 100 % of control; the T/C (dose: 25.0 mg/kg/injection, schedule: Q03DX004 (sc), vehicle: steriod suspending solution) is 87 % of control; the T/C (dose: 50.0 mg/kg/injection, schedule: Q01DX005 (sc), vehicle: steriod suspending solution) was 22 % of control. Moreover, the T/C is, setting by setting: (dose: 50.0 mg/kg/injection, schedule: Q02DX010 (sc), vehicle: steriod suspending solution) 100 % of control; (dose: 50.0 mg/kg/injection, schedule: Q03DX004 (sc), vehicle: steriod suspending solution) 92 % of control; (dose: 100.0 mg/kg/injection, schedule: Q01DX005 (sc), vehicle: steriod suspending solution) 20 % of control; (dose: 100.0 mg/kg/injection, schedule: Q02DX010 (sc), vehicle: steriod suspending solution) 96 % of control; (dose: 100.0 mg/kg/injection, schedule: Q03DX004 (sc), vehicle: steriod suspending solution) 100 % of control.

For `CO[C@@H]1[C@@H](OC2OC(C)C(OC3CC(C)(O)C(OC(=O)CC(C)C)C(C)O3)C(N(C)C)C2O)[C@@H](CC=O)C[C@@H](C)C(=O)/C=C/C2O[C@H]2C[C@@H](C)OC(=O)C[C@H]1OC(C)=O` (stereo partly specified), the T/C reads like this: under setting [5], 89 % of control; (dose: 75.0 mg/kg/injection, schedule: Q01DX010 (ip), vehicle: saline) 105 % of control; under setting [9], 90 % of control; (dose: 150.0 mg/kg/injection, schedule: Q01DX010 (ip), vehicle: saline) 90 % of control; under setting [10], 95 % of control; (dose: 300.0 mg/kg/injection, schedule: Q01DX010 (ip), vehicle: saline) 21 % of control. For the same compound, the T/C under setting [11] is 71 % of control.

For the compound `CCCSc1ncnc2nc[nH]c12`, the T/C under setting [6] was 21 % of control.
